Legend:
Assay type in all cases: biochemical
[1] = molecular target: T1, CpGPI (MBP-CpGPI) (Cryptosporidium parvum, UniProt Q5CTF8); assay: G6PDH-coupled NADH assay at […] nm
T1 sequence (Q5CTF8 1-567): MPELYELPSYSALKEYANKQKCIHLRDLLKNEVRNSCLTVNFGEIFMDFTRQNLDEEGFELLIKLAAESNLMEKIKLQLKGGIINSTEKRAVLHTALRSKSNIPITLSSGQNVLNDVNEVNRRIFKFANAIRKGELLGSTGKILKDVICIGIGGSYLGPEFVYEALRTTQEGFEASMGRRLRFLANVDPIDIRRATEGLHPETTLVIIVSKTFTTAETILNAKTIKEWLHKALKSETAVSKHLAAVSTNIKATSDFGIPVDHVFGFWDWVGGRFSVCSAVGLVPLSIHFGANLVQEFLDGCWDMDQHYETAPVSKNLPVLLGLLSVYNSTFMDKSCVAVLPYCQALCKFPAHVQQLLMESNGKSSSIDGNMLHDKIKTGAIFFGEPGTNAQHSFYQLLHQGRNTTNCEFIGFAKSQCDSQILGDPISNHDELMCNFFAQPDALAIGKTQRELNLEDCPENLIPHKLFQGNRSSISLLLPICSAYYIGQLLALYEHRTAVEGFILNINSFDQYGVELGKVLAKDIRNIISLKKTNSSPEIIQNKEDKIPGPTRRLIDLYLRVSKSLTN

[2] = molecular target: T1, CpGPI (MBP-CpGPI); assay: G6PDH-coupled NADH assay at […] nm, mixed noncompetitive fit
[3] = molecular target: HsGPI (Homo sapiens, UniProt P06744); assay: G6PDH-coupled NADH assay at […] nm

| Structure (SMILES) | IC50 [1] | Ki [2] | IC50 [3] |
| --- | --- | --- | --- |
| O=c1c2ccccc2[se]n1-c1ccccc1 [ebselen, 2-phenyl-1,2-benzisoselenazol-3(2H)-one] | 8.33 µM | 36.3 µM | > 400 µM |
| O=C[C@H](O)[C@H](O)COP(=O)(O)O [erythrose-4-phosphate] | 132 µM | – | – |

Reference: publication PMC6114080 (International Journal for Parasitology: Drugs and Drug …, 2018)
